{"source": "patent US20230235378A1", "about": "“LZHEIMER'S DISEASE-SPECIFIC ALTERATIONS OF PROTEIN KINASE C EPSILON (PKC-EPSILON PROTEIN LEVELS” (WEST VIRGINIA UNIVERSITY BOARD OF GOVERNORS ON BEHALF OF …, priority 2010, published 2023)", "system": "PKC", "experiment": "Sustained PKC activation in primary neurons", "type": "cell-based, rat", "settings": "sustained activation only observed in primary neurons", "protocol": "Cell Culture. Rat hippocampal H19-7/IGF-IR cells (ATCC, Manassas, Va.) were plated onto poly-L-lysine coated plates and grown at 35° C. in DMEM/10% FCS for several days until about 50% coverage was obtained. The cells were then induced to differentiate into a neuronal phenotype by replacing the medium with 5 ml N2 medium containing 10 ng/ml basic fibroblast growth factor at 39° C. and grown in T-75 flasks at 37° C. Human SH-SY5Y neuroblastoma cells (ATCC) were cultured in 45% F 12K/45% MEM/10% FCS. Mouse N2A neuroblastoma cells were cultured in DMEM/10% FCS without glutamine. Rat hippocampal neurons from 18-day-old embryonic\nSprague Dawley rat brains were plated on 12- or 96-well plates coated with poly-D-lysine (Sigma-Aldrich, St. Louis, Mo.) in B-27 neurobasal medium containing 0.5 mM glutamine and 25 μM glutamate (Invitrogen, Carlsbad, Calif.) and cultured for three days in the medium without glutamate. […]\nProtein Kinase C Assay. […] 0.5 μCi [γ-32P]ATP was added and 32P-phosphoprotein formation was measured by adsorption onto phosphocellulose as described previously. […] For measurements of activation by BR-101 (DCP-LA) and similar compounds, PKC activity was measured in the absence of diacylglycerol and phosphatidylserine, as described by Kanno et al., and PKC δ, ε, η, and were measured in the absence of added EGTA and CaCl2, as described by Kanno et al., J. Lipid Res. 2006; 47: 1146-50. […]"}
{"compound": "CCCCCC1CC1CC1CC1CCCCCCCC(=O)O", "note": "(stereo not shown) [BR-101, 8-[2-(2-pentyl-cyclopropylmethyl)-cyclopropyl]-octanoic acid]", "values": [{"measurement": "duration of PKC elevation", "value": "remained elevated for at least four hours"}]}
